Experimental data reported in US12440479B2, “Prevention or treatment of chronic organ injury” (GEORG-AUGUST-UNIVERSITAET GOETTINGEN, STIFTUNG …, priority 2018, dated 2025).

Key:
[1] = tested on: human proximal tubular epithelial cells (HK2 cells); test: Human TEC cultures (HK2 cells): ARNT/ALK3 and pSmad1/5/8; assay type: cell-based; details: picomolar FK506
Procedure: HK-2 (ATTC, Manassas, USA) are immortalized proximal tubule epithelial cells derived from normal adult human kidney. The murine proximal tubular epithelial cell line MCT was generated from the renal cortex of SJL mice (75). All cells were routinely tested negative for the presence of mycoplasma contamination. None of the cell lines used in this manuscript is listed in the ICLAC and NCBI Biosample database of misidentified cell lines. Cells were cultured in Dulbecco's modified Eagle's (DMEM, Gibco, Carlsbad, USA) medium supplemented with 100 µg/mL penicillin, 100 µg/mL streptomycin and 10% heat-inactivated fetal bovine serum (FBS, Sigma, St. Louis, USA) at 37° C. in 5% CO2. For RNA extractions, cells were seeded in 6 well culture plates at 10^5 cells per well in antibiotic free standard growth medium. […] Cells were harvested for further analysis 6 hours after incubation. To examine de novo protein syntheses, cells were again plated in 6 well culture plates as initially described and then pre-treated with the translation blocker Cycloheximide (CHX, 10 μg/mL, Sigma, St. Louis, USA). After one hour of incubation, 200 pM FK506 was applied for additional 6 hours. […] The relative expression levels were calculated using the equation 2^−ddCt.

[2] = tested on: chronically injured hearts; test: Angiotensin II (AT II)-induced cardiac hypertrophy and fibrosis; assay type: in vivo, mice; details: heart, 10 mg/kg subcutaneously per day starting one day prior
Procedure: Eight to twelve weeks old C57BL/6 mice were anesthetized with isoflurane inhalation (2-3%), analgesia was performed by subcutaneous injection of 0.1 mg/kg body weight Buprenorphine per day. Osmotic minipumps (Alzet, Cupertino, USA) were loaded with AT II to continuously deliver 1.44 μg/kg body weight per day and implanted subcutaneously (123). Mice were sacrificed 14 days after implantation for further analyses. Mice were injected subcutaneously with 10 mg/kg body weight per day GPI-1046 (Santa Cruz Biotechnology, Dallas, USA) in DMSO once daily starting one day prior of surgery, control mice received equivalent volume of vehicle DMSO. […] For morphometric analysis of interstitial fibrosis, fibrotic areas were assessed by using cellSens (Olympus, Tokyo, Japan) software. Ten visual fields were selected randomly for each MTS stained section at 200× magnification and the relative interstitial fibrotic area was evaluated by using a 10 mm2 graticule. Tubular damage was analysed after PAS stain and graded according to a semi-quantitative score of 0 to 3 (0: normal, 1: mild, 2: moderate, 3: severe) at 400× magnification in a total number of 100 tubules per section (158). […] Cardiomyocyte diameters were determined from 100 random fibers in PAS-stained heart sections using cellSens (Olympus, Tokyo, Japan) software.

[3] = tested on: chronically injured livers; test: CCl4-induced liver fibrosis; assay type: in vivo, mice; details: 10 mg/kg subcutaneously per day starting one day prior
Procedure: Eight to twelve weeks-old C57BL/6 mice were intraperitoneally injected with 0.25 (first injection), 0.5 (second injection) and 1 mL/kg body weight CCI4 (25% v/v dissolved in sterile oil) twice a week (63). Mice were sacrificed after 42 days for further analyses. Mice were injected subcutaneously with 10 mg/kg body weight per day GPI-1046 (Santa Cruz Biotechnology, Dallas, USA) in DMSO once daily starting one day prior of surgery, control mice received equivalent volume of vehicle DMSO. For oral administration, GPI-1046 stock solution was diluted in glucose-water (5%) and orally applied on the basis of an average drinking volume of 3 mL and a body weight of 20 g per mouse. Three days after challenging with UUO, mice were treated orally with either vehicle buffer glucose (5%) or 30 mg/kg body weight per day GPI-1046, respectively. […] For morphometric analysis of interstitial fibrosis, fibrotic areas were assessed by using cellSens (Olympus, Tokyo, Japan) software. Ten visual fields were selected randomly for each MTS stained section at 200× magnification and the relative interstitial fibrotic area was evaluated by using a 10 mm2 graticule. Tubular damage was analysed after PAS stain and graded according to a semi-quantitative score of 0 to 3 (0: normal, 1: mild, 2: moderate, 3: severe) at 400× magnification in a total number of 100 tubules per section (158). […]

Structure (SMILES)	ARNT and ALK3 transcription [1]	nuclear pSmad1/5/8 [1]	ALK3-dependent canonical BMP signaling responses [2]	protection from fibrogenesis [2]	ALK3-dependent canonical BMP signaling responses [3]	protection from fibrogenesis [3]
C=CC[C@@H]1/C=C(\C)C[C@H](C)C[C@H](OC)[C@H]2O[C@@](O)(C(=O)C(=O)N3CCCC[C@H]3C(=O)O[C@H](/C(C)=C/[C@@H]3CC[C@@H](O)[C@H](OC)C3)[C@H](C)[C@@H](O)CC1=O)[C@H](C)C[C@@H]2OC [FK506, tacrolimus]	equally induced	nuclear accumulation of pSmad1/5/8	–	–	–	–
CCC(C)(C)C(=O)C(=O)N1CCC[C@H]1C(=O)OCCCc1cccnc1 [GPI-1046, 3-(3-pyridyl)-1-propyl-(2S)-1-(3,3-dimethyl-1,2-dioxopentyl)-2-pyrrolidinedine carboxylate]	–	–	equally effective	equally effective	equally effective	equally effective
